Key:
[1] = target: T1, Dual specificity tyrosine-phosphorylation-regulated kinase 2 (Homo sapiens) (UniProt Q92630); assay: Percentage DYRK2 activity remaining in the presence of 25uM inhibitor
T1 sequence (whole entry): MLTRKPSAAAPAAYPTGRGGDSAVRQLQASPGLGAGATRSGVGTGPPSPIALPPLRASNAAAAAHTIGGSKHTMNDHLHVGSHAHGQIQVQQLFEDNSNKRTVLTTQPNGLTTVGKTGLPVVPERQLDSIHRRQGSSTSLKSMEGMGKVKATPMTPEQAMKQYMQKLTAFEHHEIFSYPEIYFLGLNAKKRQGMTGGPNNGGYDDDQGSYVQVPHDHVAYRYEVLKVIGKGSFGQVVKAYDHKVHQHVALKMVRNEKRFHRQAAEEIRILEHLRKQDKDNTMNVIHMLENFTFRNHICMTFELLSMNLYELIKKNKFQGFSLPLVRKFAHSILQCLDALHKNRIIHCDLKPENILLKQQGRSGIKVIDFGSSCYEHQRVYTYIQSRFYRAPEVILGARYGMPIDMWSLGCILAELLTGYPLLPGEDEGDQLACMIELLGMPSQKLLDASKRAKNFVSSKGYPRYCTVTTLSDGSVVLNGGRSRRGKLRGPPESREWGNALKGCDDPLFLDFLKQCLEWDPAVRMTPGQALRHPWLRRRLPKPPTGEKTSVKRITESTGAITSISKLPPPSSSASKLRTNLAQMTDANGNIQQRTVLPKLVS

[2] = target: Serine/threonine-protein kinase PAK 4 (Homo sapiens, UniProt O96013); assay: Percentage PAK4 activity remaining in the presence of 25uM inhibitor
[3] = target: Mitogen-activated protein kinase 3 (Homo sapiens) (UniProt P27361); assay: Percentage ERK1 activity remaining in the presence of 25uM inhibitor
[4] = target: Proto-oncogene tyrosine-protein kinase Src (Gallus gallus) (UniProt P00523); assay: Percentage Src activity remaining in the presence of 25uM inhibitor
[5] = target: T2, Protein kinase C zeta type (Homo sapiens) (UniProt Q05513); assay: Percentage PKCzeta activity remaining in the presence of 25uM inhibitor
T2 sequence (whole entry): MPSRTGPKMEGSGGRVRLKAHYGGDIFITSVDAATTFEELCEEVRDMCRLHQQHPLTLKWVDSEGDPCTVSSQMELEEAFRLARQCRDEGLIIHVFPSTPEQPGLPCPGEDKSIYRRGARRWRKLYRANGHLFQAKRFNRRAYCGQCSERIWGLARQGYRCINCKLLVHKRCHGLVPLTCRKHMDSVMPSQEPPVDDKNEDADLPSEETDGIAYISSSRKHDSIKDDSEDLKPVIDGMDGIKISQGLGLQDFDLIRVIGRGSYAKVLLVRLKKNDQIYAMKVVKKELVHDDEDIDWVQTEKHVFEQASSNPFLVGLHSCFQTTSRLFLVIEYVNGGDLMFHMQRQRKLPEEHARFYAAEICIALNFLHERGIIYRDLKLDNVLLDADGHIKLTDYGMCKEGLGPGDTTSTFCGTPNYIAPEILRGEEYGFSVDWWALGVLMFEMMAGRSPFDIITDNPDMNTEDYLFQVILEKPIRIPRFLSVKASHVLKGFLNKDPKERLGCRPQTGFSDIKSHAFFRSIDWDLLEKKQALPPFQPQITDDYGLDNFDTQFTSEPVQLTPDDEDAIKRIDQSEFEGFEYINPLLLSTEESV

[6] = target: Serine/threonine-protein kinase Nek7 (Homo sapiens) (UniProt Q8TDX7); assay: Percentage NEK7 activity remaining in the presence of 25uM inhibitor
[7] = target: Ribosomal protein S6 kinase beta-1 (Homo sapiens, UniProt P23443); assay: Percentage S6K1 activity remaining in the presence of 25uM inhibitor
[8] = target: Maternal embryonic leucine zipper kinase (Homo sapiens) (UniProt Q14680); assay: Percentage MELK activity remaining in the presence of 25uM inhibitor
[9] = target: T3, Serine/threonine-protein kinase D1 (Homo sapiens) (UniProt Q15139); assay: Percentage PKD1 activity remaining in the presence of 25uM inhibitor
T3 sequence (whole entry): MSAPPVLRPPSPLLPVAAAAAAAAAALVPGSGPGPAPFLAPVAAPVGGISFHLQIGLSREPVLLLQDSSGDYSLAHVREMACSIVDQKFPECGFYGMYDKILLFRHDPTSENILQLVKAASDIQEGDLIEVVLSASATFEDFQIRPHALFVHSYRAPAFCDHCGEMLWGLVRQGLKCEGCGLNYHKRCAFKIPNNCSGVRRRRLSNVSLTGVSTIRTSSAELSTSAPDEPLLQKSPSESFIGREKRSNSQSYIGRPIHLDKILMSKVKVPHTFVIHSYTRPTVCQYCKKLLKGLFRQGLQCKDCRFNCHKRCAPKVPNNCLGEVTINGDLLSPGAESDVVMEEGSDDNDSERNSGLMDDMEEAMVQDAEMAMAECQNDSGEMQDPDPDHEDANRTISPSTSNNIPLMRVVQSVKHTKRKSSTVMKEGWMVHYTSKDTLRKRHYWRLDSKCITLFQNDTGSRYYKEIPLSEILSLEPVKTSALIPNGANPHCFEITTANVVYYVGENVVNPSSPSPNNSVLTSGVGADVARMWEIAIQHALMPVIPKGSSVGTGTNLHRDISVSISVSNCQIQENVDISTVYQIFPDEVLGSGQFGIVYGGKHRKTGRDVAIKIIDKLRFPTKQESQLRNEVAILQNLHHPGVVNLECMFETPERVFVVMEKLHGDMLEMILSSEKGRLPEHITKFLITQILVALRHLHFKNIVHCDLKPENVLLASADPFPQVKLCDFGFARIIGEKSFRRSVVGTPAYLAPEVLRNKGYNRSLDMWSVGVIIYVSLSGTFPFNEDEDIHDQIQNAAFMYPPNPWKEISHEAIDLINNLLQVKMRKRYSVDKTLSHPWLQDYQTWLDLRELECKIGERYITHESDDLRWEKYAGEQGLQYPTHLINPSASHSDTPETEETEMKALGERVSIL

[10] = target: Dual specificity tyrosine-phosphorylation-regulated kinase 1A (Homo sapiens) (UniProt Q13627); assay: Percentage DYRK1A activity remaining in the presence of 25uM inhibitor
[11] = target: Serine/threonine-protein kinase N2 (Homo sapiens) (UniProt Q16513); assay: Percentage PRK2 activity remaining in the presence of 25uM inhibitor
[12] = target: Homeodomain-interacting protein kinase 2 (Homo sapiens) (UniProt Q9H2X6); assay: Percentage HIPK2 activity remaining in the presence of 25uM inhibitor
[13] = target: Serine/threonine-protein kinase Chk2 (Homo sapiens) (UniProt O96017); assay: Percentage CHK2 activity remaining in the presence of 0.01uM inhibitor
Serine/threonine-protein kinase Chk2 (Homo sapiens), sequence (O96017 whole entry): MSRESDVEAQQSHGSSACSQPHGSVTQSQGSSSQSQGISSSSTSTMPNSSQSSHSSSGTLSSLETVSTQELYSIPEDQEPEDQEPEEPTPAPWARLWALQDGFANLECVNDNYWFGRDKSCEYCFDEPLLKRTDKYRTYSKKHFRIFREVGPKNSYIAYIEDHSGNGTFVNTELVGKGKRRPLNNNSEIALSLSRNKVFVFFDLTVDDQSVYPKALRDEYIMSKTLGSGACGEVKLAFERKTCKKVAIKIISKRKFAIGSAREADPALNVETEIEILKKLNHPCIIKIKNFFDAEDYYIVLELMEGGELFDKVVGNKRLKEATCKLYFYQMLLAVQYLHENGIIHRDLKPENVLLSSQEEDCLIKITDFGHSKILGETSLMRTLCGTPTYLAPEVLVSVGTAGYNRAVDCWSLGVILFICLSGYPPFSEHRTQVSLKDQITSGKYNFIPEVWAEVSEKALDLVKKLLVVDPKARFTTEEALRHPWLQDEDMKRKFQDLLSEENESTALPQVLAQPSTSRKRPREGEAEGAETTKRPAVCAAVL

Homeodomain-interacting protein kinase 2 (Homo sapiens), sequence (Q9H2X6 whole entry, looked up): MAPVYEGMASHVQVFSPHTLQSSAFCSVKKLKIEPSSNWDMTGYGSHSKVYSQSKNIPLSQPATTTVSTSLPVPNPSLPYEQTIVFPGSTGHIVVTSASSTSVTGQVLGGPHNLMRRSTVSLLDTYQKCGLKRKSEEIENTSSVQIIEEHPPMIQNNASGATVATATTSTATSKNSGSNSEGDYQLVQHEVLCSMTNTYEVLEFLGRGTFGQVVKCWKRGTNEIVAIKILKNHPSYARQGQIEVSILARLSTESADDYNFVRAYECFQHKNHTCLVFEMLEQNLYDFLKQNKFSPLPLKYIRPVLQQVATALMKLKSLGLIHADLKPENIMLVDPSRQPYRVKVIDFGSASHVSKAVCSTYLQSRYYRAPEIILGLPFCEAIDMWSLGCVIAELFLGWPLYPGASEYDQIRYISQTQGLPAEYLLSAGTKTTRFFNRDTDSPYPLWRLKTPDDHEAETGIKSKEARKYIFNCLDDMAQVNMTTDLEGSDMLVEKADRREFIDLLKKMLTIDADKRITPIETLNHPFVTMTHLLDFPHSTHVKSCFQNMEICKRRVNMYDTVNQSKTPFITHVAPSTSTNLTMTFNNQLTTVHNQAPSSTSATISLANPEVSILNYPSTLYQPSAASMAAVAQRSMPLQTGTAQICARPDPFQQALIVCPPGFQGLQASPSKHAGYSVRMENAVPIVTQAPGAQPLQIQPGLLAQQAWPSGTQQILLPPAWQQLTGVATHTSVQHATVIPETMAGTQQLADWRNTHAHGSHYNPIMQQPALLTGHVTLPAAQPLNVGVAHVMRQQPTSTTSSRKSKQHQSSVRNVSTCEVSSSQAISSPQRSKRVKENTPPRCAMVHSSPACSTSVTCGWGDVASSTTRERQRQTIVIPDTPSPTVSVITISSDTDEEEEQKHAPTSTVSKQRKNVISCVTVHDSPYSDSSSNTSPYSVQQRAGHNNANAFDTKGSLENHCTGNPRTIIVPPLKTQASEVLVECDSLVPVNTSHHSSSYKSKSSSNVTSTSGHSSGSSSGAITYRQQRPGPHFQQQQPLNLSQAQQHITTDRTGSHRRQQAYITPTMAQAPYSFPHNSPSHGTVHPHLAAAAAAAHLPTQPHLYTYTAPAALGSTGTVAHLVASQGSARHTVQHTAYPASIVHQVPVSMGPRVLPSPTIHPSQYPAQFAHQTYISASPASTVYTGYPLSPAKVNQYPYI
Serine/threonine-protein kinase Nek7 (Homo sapiens), sequence (Q8TDX7 whole entry, looked up): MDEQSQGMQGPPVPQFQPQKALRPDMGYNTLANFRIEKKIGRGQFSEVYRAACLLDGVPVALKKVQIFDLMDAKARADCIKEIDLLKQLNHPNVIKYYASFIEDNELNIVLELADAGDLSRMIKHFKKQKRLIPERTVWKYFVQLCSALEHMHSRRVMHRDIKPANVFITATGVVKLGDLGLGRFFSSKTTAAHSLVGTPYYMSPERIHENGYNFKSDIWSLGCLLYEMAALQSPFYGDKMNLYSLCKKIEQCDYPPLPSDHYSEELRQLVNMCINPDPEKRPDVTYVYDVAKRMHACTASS
Maternal embryonic leucine zipper kinase (Homo sapiens), sequence (Q14680 whole entry, looked up): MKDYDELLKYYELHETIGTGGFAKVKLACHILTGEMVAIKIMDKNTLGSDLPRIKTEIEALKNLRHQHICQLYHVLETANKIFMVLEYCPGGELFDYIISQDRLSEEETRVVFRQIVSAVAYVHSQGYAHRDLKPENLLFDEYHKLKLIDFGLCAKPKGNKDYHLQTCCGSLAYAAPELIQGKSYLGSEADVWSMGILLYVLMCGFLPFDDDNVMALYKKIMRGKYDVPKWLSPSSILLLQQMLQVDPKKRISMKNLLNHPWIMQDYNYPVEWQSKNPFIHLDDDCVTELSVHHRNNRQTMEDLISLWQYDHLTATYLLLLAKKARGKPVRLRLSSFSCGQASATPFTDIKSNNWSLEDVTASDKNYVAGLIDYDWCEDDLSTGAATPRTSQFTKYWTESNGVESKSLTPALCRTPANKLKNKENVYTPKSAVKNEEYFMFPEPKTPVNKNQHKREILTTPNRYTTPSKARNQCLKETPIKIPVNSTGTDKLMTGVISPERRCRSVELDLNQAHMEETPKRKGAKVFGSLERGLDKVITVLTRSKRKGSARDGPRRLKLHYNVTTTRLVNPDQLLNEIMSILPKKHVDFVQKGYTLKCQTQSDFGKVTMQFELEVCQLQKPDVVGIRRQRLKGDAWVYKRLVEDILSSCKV
Serine/threonine-protein kinase PAK 4, sequence (O96013 whole entry, looked up): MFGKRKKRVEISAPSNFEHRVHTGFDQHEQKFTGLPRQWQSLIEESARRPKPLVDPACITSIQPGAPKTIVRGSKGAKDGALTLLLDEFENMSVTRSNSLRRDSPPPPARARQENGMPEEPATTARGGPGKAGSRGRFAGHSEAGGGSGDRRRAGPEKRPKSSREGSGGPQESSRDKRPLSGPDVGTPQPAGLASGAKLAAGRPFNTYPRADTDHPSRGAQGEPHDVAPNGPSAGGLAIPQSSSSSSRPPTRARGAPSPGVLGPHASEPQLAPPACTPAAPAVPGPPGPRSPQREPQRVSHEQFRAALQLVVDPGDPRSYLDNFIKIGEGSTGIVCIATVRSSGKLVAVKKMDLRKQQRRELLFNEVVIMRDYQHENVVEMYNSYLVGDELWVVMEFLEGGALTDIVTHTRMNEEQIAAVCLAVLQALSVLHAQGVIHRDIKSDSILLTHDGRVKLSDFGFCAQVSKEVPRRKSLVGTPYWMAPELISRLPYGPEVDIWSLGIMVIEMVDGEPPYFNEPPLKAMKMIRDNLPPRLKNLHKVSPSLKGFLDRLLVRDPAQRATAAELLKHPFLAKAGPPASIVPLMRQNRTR
Mitogen-activated protein kinase 3 (Homo sapiens), sequence (P27361 whole entry): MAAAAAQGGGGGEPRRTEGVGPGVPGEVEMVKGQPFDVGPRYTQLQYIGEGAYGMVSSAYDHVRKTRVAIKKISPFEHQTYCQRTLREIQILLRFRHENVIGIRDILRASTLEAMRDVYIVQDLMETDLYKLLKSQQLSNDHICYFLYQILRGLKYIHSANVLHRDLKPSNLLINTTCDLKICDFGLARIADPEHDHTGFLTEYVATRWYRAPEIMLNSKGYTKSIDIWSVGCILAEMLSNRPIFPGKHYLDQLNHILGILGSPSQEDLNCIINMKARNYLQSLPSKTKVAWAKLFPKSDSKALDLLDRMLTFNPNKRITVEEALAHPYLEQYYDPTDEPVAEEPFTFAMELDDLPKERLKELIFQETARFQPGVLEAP
Serine/threonine-protein kinase N2 (Homo sapiens), sequence (Q16513 whole entry, looked up): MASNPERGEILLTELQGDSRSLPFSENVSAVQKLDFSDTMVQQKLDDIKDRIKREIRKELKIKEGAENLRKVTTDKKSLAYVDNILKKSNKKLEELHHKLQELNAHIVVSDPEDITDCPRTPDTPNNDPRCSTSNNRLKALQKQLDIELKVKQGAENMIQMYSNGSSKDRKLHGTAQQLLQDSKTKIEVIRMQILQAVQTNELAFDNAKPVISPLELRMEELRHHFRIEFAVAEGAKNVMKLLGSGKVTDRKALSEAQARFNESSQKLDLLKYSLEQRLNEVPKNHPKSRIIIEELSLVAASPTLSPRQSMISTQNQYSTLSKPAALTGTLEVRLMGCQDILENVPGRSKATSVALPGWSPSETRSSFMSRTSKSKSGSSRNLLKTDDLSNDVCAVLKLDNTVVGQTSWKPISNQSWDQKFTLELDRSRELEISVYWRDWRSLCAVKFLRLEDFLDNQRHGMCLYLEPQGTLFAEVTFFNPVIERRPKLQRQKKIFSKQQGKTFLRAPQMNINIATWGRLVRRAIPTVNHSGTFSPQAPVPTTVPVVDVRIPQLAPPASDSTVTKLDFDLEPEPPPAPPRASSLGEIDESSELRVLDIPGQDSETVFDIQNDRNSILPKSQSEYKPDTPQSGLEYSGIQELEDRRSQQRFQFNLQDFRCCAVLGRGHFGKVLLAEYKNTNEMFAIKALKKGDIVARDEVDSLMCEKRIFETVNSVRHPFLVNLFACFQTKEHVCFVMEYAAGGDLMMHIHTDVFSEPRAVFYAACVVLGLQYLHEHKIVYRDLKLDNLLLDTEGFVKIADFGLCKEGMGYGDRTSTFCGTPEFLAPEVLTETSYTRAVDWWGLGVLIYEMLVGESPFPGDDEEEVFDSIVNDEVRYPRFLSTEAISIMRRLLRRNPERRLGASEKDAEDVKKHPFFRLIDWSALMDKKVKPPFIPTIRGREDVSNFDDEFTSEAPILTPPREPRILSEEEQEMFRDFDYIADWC

Compound | Activity [1] [%] | Activity [2] [%] | Activity [3] [%] | Activity [4] [%] | Activity [5] [%] | Activity [6] [%] | Activity ([7]; filed as antagonist) [%] | Activity [8] [%] | Activity [9] [%] | Activity ([10]; filed as antagonist) [%] | Activity ([11]; filed as antagonist) [%] | Activity [12] [%] | Activity [7] [%] | Activity [10] [%] | Activity [11] [%] | Activity [13] [%]
NCCNS(=O)(=O)c1ccc(Cl)c2ccncc12 | 76 | 88 | 102 | 92 | 52 | 102 | 49 | 63 | 60 | 39 | 47 | 98 | – | – | – | –
COc1cc(OC)c(/C=C2/C(=O)Nc3ccccc32)c(OC)c1 | 99 | 84 | 91 | 70 | 80 | 103 | – | 75 | 62 | – | – | 96 | 84 | 73 | 87 | –
O=C(NCCCNc1nc(Nc2cccc(NC(=O)N3CCCC3)c2)ncc1I)c1cccs1 | – | – | – | – | – | – | – | – | – | – | – | – | – | – | – | 91
CN[C@@H]1C[C@H]2O[C@@](C)([C@@H]1OC)n1c3ccccc3c3c4c(c5c6ccccc6n2c5c31)C(=O)N[C@H]4O (stereo in doubt) | – | – | – | – | – | – | – | – | – | – | – | – | – | – | – | 96
